In the experiment the test system is Brown Stink Bug (Euschistus heros). Nature of the experiment: Action on Brown Stink Bug (Euschistus heros) on sprayed soybean seedlings. The experiment is classed as in vivo. The following applies: for mortality at 1 ppm: 1 ppm a.i.; for mortality at 10 ppm: 10 ppm a.i. The procedure:
Action on Brown Stink Bug (Euschistus heros)
The active compound is dissolved at the desired concentration in a mixture of 1:1 (vol:vol) distilled water: acetone.
Soybean seedlings of Intacta® and BMX-Potencia with one pair of true leaves were sprayed with 2 ml solution using an airbrush. After dry, the plants in small pots were placed inside a transparent plastic cage and infested with 10 adults adult stage individuals. Treated cups were kept at about 25° C. Percent mortality was recorded after 3 and 7 days after application.

Setting [1] is: 72 h, BMX-POTENCIA soybean seedlings, 3 days after application, adults, read-out: mortality 3 DAA.
The mark [2] stands for this setting: 72 h, INTACTA soybean seedlings, 3 days after application, adults, read-out: mortality 3 DAA.
Setting [3] is: 168 h, BMX-POTENCIA soybean seedlings, 7 days after application, adults, read-out: mortality 7 DAA.
[4] abbreviates: 168 h, BMX-POTENCIA soybean seedlings, 7 days after application, corrected according to Abbott, read-out: mortality (Abbott %) 7 DAA.
[5] abbreviates: 168 h, INTACTA soybean seedlings, 7 days after application, adults, read-out: mortality 7 DAA.
[6] abbreviates: 168 h, INTACTA soybean seedlings, 7 days after application, corrected according to Abbott, read-out: mortality (Abbott %) 7 DAA.

The results in this text go back to patent US20190059381A1, “METHOD FOR CONTROLLING PESTS OF SOYBEAN, CORN, AND COTTON PLANTS” (BASF SE, priority 2016, published 2019).

Read-outs that look alike come from different tables or passages of the source.

Regarding `CCN1OC[C@@H](NC(=O)c2ccc(C3=NOC(c4cc(Cl)cc(Cl)c4)(C(F)(F)F)C3)cc2C)C1=O` (stereo partly drawn) [Compound I.1], the mortality at 1 ppm runs as follows: under setting [1], 7.5%; under setting [2], 12.5%; under setting [3], 50%; under setting [4], 42.9%; under setting [5], 57.5%; under setting [6], 50%. Further, the mortality at 10 ppm was found to be 17.5% under setting [1]; 17.5% under setting [2]; 82.5% under setting [3]; 80% under setting [4]; 85% under setting [5]; 82.4% under setting [6].

A word on the mortality: it is the share of the test organisms that died.
